The values below come from US20020173491A1, “DAPD combination therapy with inosine monophosphate dehydrogenase inhibitor” (priority 2000, published 2002).

Data set [1] concerns the target HIV reverse transcriptase (HIV-RT) (Human immunodeficiency virus type 1 group M subtype B, UniProt P04585). The settings on record: cited from earlier work.
A short description of data set [2]: XTT based cytotoxicity assay, MT2. The settings on record: human, MT2 T-cell line, MT2 cells. The protocol:
The XTT (2,3-bis(2-methoxy-4-nitro-5-sulfoxyphenyl)-5[(phenylamino)carbonyl]-2H-tetrazolium hydroxide) assay is an in vitro colorimetric cyto-protection assay. Reduction of XTT by mitochondria dehydrogenases results in the cleavage of the tetrazolium ring of XTT, yielding orange formazan crystals, which are soluble in aqueous solution. The resultant orange solution was read in a spectrophotometer at a wavelength of 450nm. […] Cells were added to the plat at 3×10^4/well (MTX) and 2×10^5/well (PBMC) and the plates were incubated for 5 days at 37° C. in a 5% CO2 incubator (addition of the cells to the plate diluted the compound to a final high concentration of 1 mM). At the end of the 5-day incubation, XTT was added to each well and incubated at 37° C. for 3 hours followed by the addition of acidified isopropanol. The plate was read at 450 nm in a 96 well plate reader. A dose response curve was generated using the absorption values of cells grown in the absence of compound as 100% protection.
MPA was tested for cytotoxicity on the laboratory adapted T-cell line MT2 and in PBMCs using a XTT based assay. […] The resultant orange solution is read in a spectrophotometer at a wavelength of 450nm. […] The plate was read at 450 nm in a 96 well plate reader. […]

The nature of data set [3]: XTT based cytotoxicity assay, PBMC. It counts as cell-based. As to conditions: human, PBMCs.
Method: The XTT (2,3-bis(2-methoxy-4-nitro-5-sulfoxyphenyl)-5[(phenylamino)carbonyl]-2H-tetrazolium hydroxide) assay is an in vitro colorimetric cyto-protection assay. Reduction of XTT by mitochondria dehydrogenases results in the cleavage of the tetrazolium ring of XTT, yielding orange formazan crystals, which are soluble in aqueous solution. […] Cells were added to the plat at 3×10^4/well (MTX) and 2×10^5/well (PBMC) and the plates were incubated for 5 days at 37° C. in a 5% CO2 incubator (addition of the cells to the plate diluted the compound to a final high concentration of 1 mM). At the end of the 5-day incubation, XTT was added to each well and incubated at 37° C. for 3 hours followed by the addition of acidified isopropanol. The plate was read at 450 nm in a 96 well plate reader. A dose response curve was generated using the absorption values of cells grown in the absence of compound as 100% protection.
The XTT (2,3-bis(2-methoxy-4-nitro-5-sulfophenyl)-5[(phenylamino)carbonyl]-2H-tetrazolium hydroxide) assay is an in vitro colorimetric cyto-protection assay. Reduction of XTT by mitochondria dehydrogenases results in the cleavage of the tetrazolium ring of XTT, yielding orange formazan crystals, which are soluble in aqueous solution. […] The plate was read at 450 nm in a 96 well plate reader. […]
The test system of data set [4] is xxLAI strain of HIV-1. In words: microbe, parasite or virus in culture. It counts as cell-based. The settings on record: compound alone, any of the concentrations tested (RBV up to 100 μM, MPA up to 1 μM). The protocol:
Triplicate samples of compound were tested. MT2 cells were infected with xxLAI at a multiplicity of infection (MOI) of 0.03 for 3 hours at 37° C. in 5% CO2. The infected cells were plated at 3.0×10^4/well into a 96 well plated containing drug dilutions and incubated for 5 days at 37° C. in CO2. […] This method has been modified into a susceptibility assay and has been used in a variety of in vitro antiviral tests and is readily adaptable to any system with a lytic virus (Weislow, O. S., et. al. 1989). Using the absorption values of the cell controls as 100% protection and no drug, virus infected cells as 0% protection, a dose response curve is generated by plotting % protection on the Y axis and drug concentration on the X axis. From this curve EC50 values were determined.
Assays were performed in the MT2 cell line as described above in the XXT sensitivity assay section.
MPA was tested for activity against the xxLAI strain of HIV-1 in the laboratory adapted cell line MT2. Dilutions of MPA were made in cell culture media in a 96 well plate; the highest concentration tested was 1 μM. Triplicate samples of compound were tested. MT2 cells were infected with xxLAI at a multiplicity of infection (MOI) of 0.03 for 3 hours at 37° C. in 5% CO2. The infected cells were plated at 3.0×10^4/well into a 96 well plated containing drug dilutions and incubated for 5 days at 37° C. in CO2. The antiviral activity of MPA was determined using the XTT assay described above. This method has been modified into a susceptibility assay and has been used in a variety of in vitro antiviral tests and is readily adaptable to any system with a lytic virus (Weislow, O. S., et. al. 1989). Using the absorption values of the cell controls as 100% protection and no drug, virus infected cells as 0% protection, a dose response curve is generated by plotting % protection on the Y axis and drug concentration on the X axis. From this curve EC50 values were determined.
The concentrations of MPA used were 1, 0.5, 0.25, 0.1, and 0.01 μM. Assays were performed in the MT2 cell line as described in section 3.1.

Data set [5] deals with xxLAI strain of HIV-1. The data set can be described thus: microbe, parasite or virus in culture. As to conditions: Human immunodeficiency virus 1, PBMC, 72 h. It counts as cell-based. The protocol: In this assay, cell supernatants were incubated on microelisa wells coated with antibodies to HIV-1 p24 core antigen. Subsequently, anti-HIV-1 conjugate labeled with horseradish peroxidase was added. The labeled antibody bound to the solid phase antibody/antigen complexes previously formed. Addition of the tetramethylbenzidine substrate results in blue color formation. The color turned yellow when the reaction is stopped. The plates were then analyzed on a plate reader set at 490 nm. The absorbance is a direct measurement of the amount of HIV-1 produced in each well and a decrease in color indicates decreased viral production. […] PBMC were obtained from HIV-1 negative donors by banding on Ficoll gradients, stimulated with phytohemaglutinin (PHAP) for 48 hours prior to infection with HIV-1, and infected with virus for 4 hours at 37° C. at a MOI of 0.001. […] Plates were incubated for 3 days at 37° C. The concentration of virus in each well was determined using the NEN p24 assay. Using the absorption values of the cell controls as 100% protection and drug free, virus infected cells as 0% protection, a dose response curve is generated by plotting percent protection on the Y axis and drug concentration on the X axis. From this curve, EC50 values were determined.
Compound dilutions and assay conditions were as described above.
MPA was also tested for activity against the xxLAI strain of HIV-1 in PBMCs using a p24 based Elisa assay. In this assay, cell supernatants are incubated on microelisa wells coated with antibodies to HIV-1 p24 core antigen. Subsequently, anti-HIV-1 conjugate labeled with horse radish peroxidase is added. The labeled antibody binds to the solid phase antibody/antigen complexes previously formed. Addition of the tetramethylbenzidine substrate results in blue color formation. The color turns yellow when the reaction is stopped. The plates are then analyzed on a plate reader set at 490 nm. The absorbance is a direct measurement of the amount of HIV-1 produced in each well and a decrease in color indicates decreased viral production. Dilutions of MPA were made in cell culture media in a 96 well plate, the highest concentration of MPA tested was 1 μM. PBMC were obtained from HIV-1 negative donors by banding on Ficoll gradients, stimulated with phytohemaglutinin (PHAP) for 48 hours prior to infection with HIV-1, and infected with virus for 4 hours at 37° C. at a MOI of 0.001. Infected cells were seeded into 96 well plates containing 4-fold serial dilutions of MPA. Plates were incubated for 3 days at 37° C. The concentration of virus in each well was determined using the NEN p24 assay. Using the absorption values of the cell controls as 100% protection and drug free, virus infected cells as 0% protection, a dose response curve is generated by plotting % protection on the Y axis and drug concentration on the X axis. From this curve EC50 values were determined.
Compound dilutions and assay conditions were as described above. The concentrations of MPA used were 1, 0.5, 0.25, 0.1, and 0.01 μM.

In another data set the test system is HCV. The settings on record: ribavirin alone; cited from earlier work.
The mark [6] stands for this setting: read-out: EC50, HIV-1 replication in PBMCs, compound alone, p24, 3 days.

Where two headings read alike, the source gives them in different places. Some results are limits rather than exact numbers.

`Nc1nc2c(ncn2C2COC(COP(=O)(O)OP(=O)(O)OP(=O)(O)O)O2)c(=O)[nH]1` (stereo not drawn) [DXG-TP]: the Ki in data set [1] is 0.019 µM.

For the molecule `COc1c(C)c2c(c(O)c1C/C=C(\C)CCC(=O)O)C(=O)OC2` [MPA, 6-(4-hydroxy-6-methoxy-7-methyl-3-oxo-5-phthalanyl)-4-methyl-4-hexanoic acid], the CC50 at 5 days came to 5.7 µM in data set [2] and 4.5 µM in data set [3]. In the data set with xxLAI strain of HIV-1 [4], the “activity against HIV-1 in MT2 cells” value is listed as “not active”. For the same molecule, the EC50 in the data set on xxLAI strain of HIV-1 [5] (setting [6]) turned out to be 0.095 µM; in the data set on xxLAI strain of HIV-1 [5] (read-out: median EC50, HIV-1 replication in PBMCs, compound alone, p24, 3 days) it was 0.095 µM.

Regarding `NC(=O)c1ncn([C@@H]2O[C@H](CO)[C@@H](O)[C@H]2O)n1` [RBV, 1-β-D-ribofuranosyl-1,2,4-triazole-3-carboxamide], the CC50 at 5 days in data set [2] was above 1000 µM. The CC50 at 5 days in data set [3] was above 1000 µM. Further, the “activity against HIV-1 in MT2 cells” value in the data set with xxLAI strain of HIV-1 [4] is “not active”. Further, the EC50 in the data set on xxLAI strain of HIV-1 [5] (setting [6]) came to 20.5 µM. Moreover, in the data set on HCV, the “effect on serum levels of HCV-RNA” value is given as “does not lower” and the “patients with serum amino transferase levels reduced to normal” value is 40%.

One may read the Ki as a dissociation constant, usually derived from enzyme kinetics or from competition with a known ligand. In general, CC50 refers to the concentration at which the toxic effect on the cells reaches its halfway point. Broadly, the EC50 is the concentration that produces a half-maximal response.
